We go through seven molecules from ChEMBL document CHEMBL1201862, “PubChem BioAssay data set” (2004).

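Protocol summary: plate cells (96-well), add compound at 5 concentrations, incubate 48 h, interpolate endpoints linearly. The concentration for 50% growth inhibition is given as GI50.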 Calls of active or inactive are those of the source. Rule as the data show it: active = GI50 up to about 1.1 µM and inactive = higher. Some results are limits rather than exact numbers.

Test systems include 786-0; A549; ACHN; COLO 205; EKVX; HOP-92; MDA-MB-435; NCI-H226; NCI-H23; NCI-H522; NCI/ADR-RES; OVCAR-3; OVCAR-4; PC-3; RPMI-8226; SK-MEL-5; SW-620; TK-10; UACC-62; UO-31.
What all share (experiment): NCI-60 cell line screen, 48 h

Consider `Cc1ccc(S(=O)ON2CCC(C(=O)O)(c3ccccc3)CC2)cc1` (stereo not given), for which the GI50 in the assay with 786-0 was 0.0773 µM (active); in the assay on A549 it was > 100 µM (inactive); with ACHN, > 100 µM (inactive); with COLO 205, > 100 µM (inactive); with EKVX it was 33.3 µM (inactive); with HOP-92, 45.5 µM (inactive). Moreover, the GI50 in the assay with MDA-MB-435, in the assay on NCI-H226, in the assay with NCI-H23, in the assay with NCI-H522, in the assay with NCI/ADR-RES and with OVCAR-3 was > 100 µM (inactive) throughout. The GI50 in the assay with OVCAR-4, in the assay with PC-3, with RPMI-8226, in the assay with SK-MEL-5, in the assay with SW-620 and in the assay with TK-10 was > 100 µM (inactive) in each case. Moreover, the GI50 in the assay on UACC-62 and in the assay on UO-31 was > 100 µM (inactive) each time.

On to `CCN(CC)C1Oc2cc3c(cc2C(c2cc(OC)c(OC)c(OC)c2)C1C)OCO3` (stereo not given), for which the GI50 in the assay with 786-0 is 1.33 µM (inactive); in the assay on A549 it was 1.55 µM (inactive); in the assay on ACHN, 2.14 µM (inactive); in the assay with COLO 205 it was 0.875 µM (active); in the assay with EKVX, 10.4 µM (inactive); in the assay with HOP-92, 0.676 µM (active). Moreover, the GI50 with MDA-MB-435 is 0.113 µM (active); in the assay on NCI-H226, 0.875 µM (active); in the assay with NCI-H23 it was 1.53 µM (inactive); with NCI-H522, 0.344 µM (active); in the assay with NCI/ADR-RES, 0.219 µM (active); in the assay with OVCAR-3, 0.387 µM (active). Also, the GI50 with OVCAR-4 was 16.1 µM (inactive); in the assay on PC-3, 0.979 µM (active); with RPMI-8226, 0.927 µM (active); in the assay on SK-MEL-5, 0.408 µM (active); with SW-620, 0.531 µM (active); in the assay with TK-10, 26.5 µM (inactive). Further, the GI50 was 1.06 µM (active) in the assay on UACC-62 and 2.56 µM (inactive) in the assay on UO-31.

For the molecule `O=C1C=CC(=O)c2c1ccc1c3ccccc3n(CCCCCn3c4ccccc4c4ccc5c(c43)C(=O)C=CC5=O)c21`, the GI50 in the assay on 786-0 was 6.87 µM (inactive); in the assay on A549, > 100 µM (inactive); in the assay on ACHN, 15.3 µM (inactive); in the assay on COLO 205, 15.2 µM (inactive); with EKVX, 33.3 µM (inactive); in the assay on HOP-92, 16.5 µM (inactive). Also, the GI50 in the assay with MDA-MB-435 was 22 µM (inactive); in the assay on NCI-H226 it was > 100 µM (inactive); in the assay on NCI-H23, 16 µM (inactive); with NCI-H522 it was 2.02 µM (inactive); with NCI/ADR-RES, 25.6 µM (inactive); in the assay on OVCAR-3 it was 17.9 µM (inactive). For the same molecule, the GI50 in the assay with OVCAR-4 is > 10 µM (inactive); in the assay on PC-3 it was 17.1 µM (inactive); in the assay with RPMI-8226, 4.14 µM (inactive); in the assay on SK-MEL-5, 32.4 µM (inactive); in the assay on SW-620 it was 8.17 µM (inactive); in the assay with TK-10, 12.4 µM (inactive). Also, the GI50 in the assay on UACC-62 is 25.7 µM (inactive); with UO-31, 7.87 µM (inactive).

With `N#Cc1c(C#N)c(-c2ccccc2)n(/N=C\c2ccccc2)c1N`, the GI50 in the assay with 786-0 was 28.1 µM (inactive); in the assay on A549, 13 µM (inactive); in the assay with ACHN, 14.2 µM (inactive); in the assay on COLO 205, 22.5 µM (inactive); in the assay with EKVX, 13.6 µM (inactive); with HOP-92, 20.8 µM (inactive). In addition, the GI50 with MDA-MB-435 was 45.4 µM (inactive); with NCI-H226, 20.8 µM (inactive); in the assay on NCI-H23, 24.4 µM (inactive); with NCI-H522, 11.6 µM (inactive); with NCI/ADR-RES it was 11.2 µM (inactive); with OVCAR-3, 12.9 µM (inactive). Besides, the GI50 in the assay on OVCAR-4 was 12.9 µM (inactive); in the assay with PC-3, 14.4 µM (inactive); with RPMI-8226, 3.46 µM (inactive); with SK-MEL-5, 11.4 µM (inactive); with SW-620 it was 62.4 µM (inactive); in the assay on TK-10, 29.4 µM (inactive). Moreover, the values for the GI50 in the assay with UACC-62 and with UO-31 were 12.5 µM (inactive) and 19 µM (inactive), respectively.

As for `O=C(CC(C(=O)c1cccs1)c1ccccc1)c1ccccc1O` (stereo not given), the GI50 was 9.91 µM (inactive) in the assay on 786-0; 13.1 µM (inactive) in the assay on A549; 11.3 µM (inactive) in the assay with ACHN; > 50.7 µM (inactive) with COLO 205; 12.7 µM (inactive) in the assay on EKVX; 7.6 µM (inactive) in the assay with HOP-92. In addition, the GI50 with MDA-MB-435 was 3.1 µM (inactive); with NCI-H226, > 57.7 µM (inactive); in the assay with NCI-H23, > 42.6 µM (inactive); in the assay with NCI-H522, 3.21 µM (inactive); in the assay on NCI/ADR-RES, 6.01 µM (inactive); with OVCAR-3, 83 µM (inactive). Besides, the GI50 is 16.4 µM (inactive) in the assay on OVCAR-4; 14 µM (inactive) with PC-3; 12.8 µM (inactive) in the assay with RPMI-8226; 9.48 µM (inactive) in the assay with SK-MEL-5; 46 µM (inactive) in the assay with SW-620; > 41.1 µM (inactive) in the assay on TK-10. Also, the GI50 with UACC-62 is 14.7 µM (inactive); with UO-31 it was 18.5 µM (inactive).

On to `O=C1C(=C(C(F)(F)Cl)C(F)(F)Cl)C2CCC1C2` (stereo not given), for which the GI50 in the assay with 786-0 was 1.87 µM (inactive); in the assay on A549 it was 2.2 µM (inactive); in the assay with ACHN it was 1.84 µM (inactive); in the assay on COLO 205 it was 1.67 µM (inactive); in the assay on EKVX it was > 10 µM (inactive); in the assay with HOP-92, 2.58 µM (inactive). Moreover, the GI50 with MDA-MB-435 is 1.88 µM (inactive); in the assay on NCI-H226 it was > 5.38 µM (inactive); in the assay on NCI-H23 it was 1.96 µM (inactive); in the assay with NCI-H522, 0.225 µM (active); in the assay on NCI/ADR-RES it was 2.15 µM (inactive); in the assay with OVCAR-3 it was 2.45 µM (inactive). The GI50 in the assay with OVCAR-4 is 2.84 µM (inactive); in the assay on PC-3 it was 2.07 µM (inactive); with RPMI-8226 it was 0.849 µM (active); in the assay with SK-MEL-5, 1.67 µM (inactive); in the assay with SW-620, 1.82 µM (inactive); in the assay on TK-10, 1.77 µM (inactive). The GI50 with UACC-62 is 2.01 µM (inactive); with UO-31, 2.49 µM (inactive).

As for `Cc1cccc(C)c1/N=N/c1ccc(O)c(CN(C)C)c1`, the GI50 was 43.9 µM (inactive) in the assay with 786-0; 65.9 µM (inactive) in the assay with A549; 36.2 µM (inactive) in the assay with ACHN; 22.3 µM (inactive) in the assay with COLO 205; > 100 µM (inactive) in the assay on EKVX; 3.21 µM (inactive) with HOP-92. The GI50 in the assay with MDA-MB-435 was 41.8 µM (inactive); in the assay with NCI-H226, 87.9 µM (inactive); in the assay with NCI-H23 it was 60.1 µM (inactive); in the assay with NCI-H522, 42.6 µM (inactive); in the assay on NCI/ADR-RES it was 41.2 µM (inactive); with OVCAR-3, 45.3 µM (inactive). The GI50 was 47.9 µM (inactive) in the assay with OVCAR-4; 62.8 µM (inactive) in the assay with PC-3; 29 µM (inactive) in the assay on RPMI-8226; 11.7 µM (inactive) with SK-MEL-5; 91.2 µM (inactive) with SW-620; 59.6 µM (inactive) with TK-10. Also, the GI50 with UACC-62 was 26.7 µM (inactive); in the assay on UO-31, 15.6 µM (inactive).
